Columns and labels:
BTK = target: T1, BTK (Homo sapiens, UniProt Q06187); assay: BTK degradation activity test in Mino cells; type: cell-based; details: 16 h incubation, Western blot or Elisa
T1 construct: endogenous in cells; host or cells: Mino cells
In short: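 DC50 derived by curve fitting of BTK degradation rates versus untreated control across compound concentrations. Mino cells were exposed for 16 h; BTK levels in lysates, normalised via BCA protein, measured by Western blot or ELISA.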

B cell activation = assay: Test of inhibition of B cell activation in PBMC (Anti-Human IgM stimulation, flow cytometry); type: cell-based; details: Anti-Human IgM 50 μg/mL, 18 h
Method: The PBMC cell cryopreservation liquid was resuspended in 1640 complete culture medium to an appropriate concentration, and inoculated into a 96-well round-bottom plate at 15×10^4 cells/90 μL/well, and the culture plate was placed in a CO2 incubator for incubation.
The compounds to be tested were formulated into 10 mM stock solutions which were then fold-serially diluted with DMSO, and then diluted with 1640 complete culture liquid to make the concentration 100 times of the final concentration. The compound diluent was added into the cell solution in each well at 1 μL/well and shaken gently. 2 duplicate wells were set up for each concentration. The dosed cell plate was placed in a 37° C. incubator with 5% carbon dioxide and incubated for 1 h.
3. The dosed cell culture plate was taken and 10 μL of Anti-Human IgM-UNLB was added into the well corresponding to the compound to be tested; in 2 groups of cell blank wells, only 10 μL of Anti-Human IgM-UNLB was added; and in 3 groups of cell blank wells, no reagents and antibodies were added. The final concentration of Anti-Human IgM-UNLB was 50 μg/mL.
4. The loaded cell culture plate was placed in a 37° C. incubator with 5% carbon dioxide and incubated for 18 h. Total system: 90 μL PBMC+1 μL compound+10 μL Anti-Human IgM-UNLB
5. Samples were collected and stained, and the cells were analyzed using flow cytometry to obtain data. (When analyzed using flow cytometry, lymphocytes were gated).

Mino cells = assay: Inhibitory activity on Mino cell proliferation (MTS); type: cell-based; details: Homo sapiens, 168 h incubation
In short: (§1)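 Cells seeded at 10000/well, treated with compounds from 1000 nM (4-fold, 8 points) for 72 h (OCI-LY10) or 168 h (Mino) at 37° C. MTS added for 2 h, stopped with SDS, absorbance read at 490 and 650 nm; IC50 from dose-response fit.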

[1] = system: OCL-LY10 transplanted tumors; assay: Chronic efficacy test, OCL-LY10 subcutaneous transplanted tumor model; type: in vivo; details: NOD/SCID mice, intragastric 10 mg/kg, 3 weeks
Method: NOD/SCID mice were subcutaneously inoculated with OCL-LY10 cells to establish a tumor model. When the tumors grew to about 100 mm^3, the mice were administered with drugs in groups. The mode of administration was as follows: the test compound was administered intragastrically at 10 mg/kg; The changes in body weight and tumor size of the mice were measured twice per week. After 3 weeks, the mice were sacrificed by cervical dislocation, and the efficacy of the compounds on transplanted tumors in OCL-LY10 mice was examined.

OCI-LY10 cells = assay: Inhibitory activity on OCI-LY10 cell proliferation (MTS); type: cell-based; details: Homo sapiens, 72 h
In short: as §1

[2] = Stability of compounds in human liver microsome; type: in vitro ADME; details: human liver microsomes, NADPH, 37° C., sampling 0-120 min; read-out: Human liver microsome T1/2
In short: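 Compound incubated at 37° C with human liver microsomes (1 mg in 1 mL PBS) plus NADPH. Samples taken at 0, 15, 30, 60 and 120 min, quenched into internal standard solution and analysed by LC/MS; metabolism calculated from peak area.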

[3] = Mouse absorption test (pharmacokinetic properties in mice); type: in vivo; details: intragastric, 30 mg/kg; for DNAUC: DNAUC = AUC/Dose; for Cmax: mouse, plasma, po
Method: […] The blood collection time points for intragastric administration were 0.25, 0.5, 1, 2, 4, 6, 8, and 24 h. 0.5 mL of blood was taken with a capillary tube from the orbit, and placed in an EP tube containing EDTA anticoagulant. The EP tube was shaken gently for mixing uniformly, and centrifuged at 3500 rpm and 4° C. for 10 min. The supernatant, i.e., plasma, was taken. Analysis was performed using LC-MS/MS.

BTK-C481S = target: T2, BTK-C481S (Homo sapiens, UniProt Q06187, C481S); assay: BTK-C481S degradation activity test in HEK293 OE BTK-C481S cells; type: cell-based; details: 24 h incubation, Western blot or Elisa
T2 construct: expressed in transfected cells; host or cells: HEK293 OE BTK-C481S (overexpressing) cell line
Method: HEK293 OE BTK-C481S cell line cells were seeded at 500,000 to 1,000,000 cells/well in a 6-well plate. The compounds were diluted to different concentrations and added to the plate, and after 24 h of incubation, the cells were harvested. After lysing the cells, the total protein concentration in each well was determined using the BCA method. The amount of BTK-C481S was determined using Western blot or Elisa method. The amount of undegraded BTKC481S protein at each drug concentration was compared with the amount of BTKC481S protein in the blank control group to calculate the degradation rate. The degradation curve was drawn based on the degradation rate at each concentration, and the half degradation concentration (DC50) was calculated by fitting.

[4] = Beagle dog absorption test (PK in dogs); type: in vivo; details: plasma, po, intragastric, 10 mg/kg
Method: Beagle dogs were used as experimental animals, and drugs were administered intragastrically at 10 mg/kg. The blood collection time points for intragastric administration were 0, 0.25, 0.5, 1, 2, 4, 6, 8, 10, 12, and 24 h. 1.0 mL of blood was collected from the jugular vein, placed in an EDTAK2 centrifuge tube, and placed on an ice bath, centrifuged at 5000 rpm and 4° C. for 10 min to obtain the supernatant, i.e., plasma. 0.1 ml of the plasma was taken for analysis by LC-MS/MS.

T2 sequence (Q06187 whole entry C481S): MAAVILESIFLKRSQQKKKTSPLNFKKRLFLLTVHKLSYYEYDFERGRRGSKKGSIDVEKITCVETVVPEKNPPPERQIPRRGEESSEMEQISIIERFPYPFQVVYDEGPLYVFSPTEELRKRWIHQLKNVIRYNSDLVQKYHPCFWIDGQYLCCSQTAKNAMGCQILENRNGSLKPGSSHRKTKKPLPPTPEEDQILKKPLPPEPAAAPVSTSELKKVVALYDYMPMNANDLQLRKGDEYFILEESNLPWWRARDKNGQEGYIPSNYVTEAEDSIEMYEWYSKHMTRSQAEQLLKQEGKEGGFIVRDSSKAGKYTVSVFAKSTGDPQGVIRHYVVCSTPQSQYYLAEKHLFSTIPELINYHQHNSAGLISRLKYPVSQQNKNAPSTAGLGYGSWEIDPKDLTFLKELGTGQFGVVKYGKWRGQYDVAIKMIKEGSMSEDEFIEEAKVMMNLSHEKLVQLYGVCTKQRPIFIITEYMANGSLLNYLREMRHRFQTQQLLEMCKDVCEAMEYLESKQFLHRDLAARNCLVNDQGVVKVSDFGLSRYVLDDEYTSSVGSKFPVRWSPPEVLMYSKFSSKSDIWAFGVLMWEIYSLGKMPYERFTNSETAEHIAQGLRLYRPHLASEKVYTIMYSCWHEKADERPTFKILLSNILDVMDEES
T1 sequence (Q06187 whole entry): as the sequence (Q06187 whole entry C481S) above, with S481C counted along it

Row | Compound | DC50 (BTK) | Inhibition ratio % (B cell activation; concentration 0.16 nM) | Inhibition ratio % (B cell activation; concentration 0.80 nM) | IC50 (Mino cells) | TGI (%) [1] | IC50 (OCI-LY10 cells) | half-life at 0.97 µg/mL [2] | DNAUC [3] | Cmax [3] | DC50 (BTK-C481S) | Cmax ([3]; class symbols) | AUC [4]
1 | CN1CCN([C@@H]2CCCN(c3nnc(C(N)=O)c(Nc4ccc(N5CCN(C[C@@H]6CCN(c7ccc8c(c7)C(=O)N(C7CCC(=O)NC7=O)C8=O)C6)CC5)c(F)c4)n3)C2)C1=O (stereo partly drawn) [Compound 131, 5-((4-(4-(((3S)-1-(2-(2,6-dioxopiperidin-3-yl)-1,3-dioxoisoindolin-5-yl)pyrrolidin-3-yl)methyl)piperazin-1-yl)-3-fluorophenyl)amino)-3-((R)-3-(3-methyl-2-oxoimidazolin-1-yl)piperidin-1-yl)-1,2,4-triazin-6-carboxamide] | < 1 nM | 60.8% | 100% | 3.61 nM | 96.67% | 0.9 nM | > 30 min | 3614 ng/ml*h/mpk | 6190 ng/mL | < 10 nM | – | –
2 | CN1CCN([C@@H]2CCCN(c3nnc(C(N)=O)c(Nc4ccc(N5CCN(CC6CCN(c7ccc(N8CCC(=O)NC8=O)cc7)CC6)CC5)c(F)c4)n3)C2)C1=O [Compound 255, (R)-5-((4-(4-((1-(4-(2,4-dioxotetrahydropyrimidin-1(2H)-yl)phenyl)piperidin-4-yl)methyl)piperazin-1-yl)-3-fluorophenyl)amino)-3-(3-(3-methyl-2-oxoimidazolidin-1-yl)piperidin-1-yl)-1,2,4-triazin-6-carboxamide] | < 1 nM | – | – | < 0.26 nM | – | 1.5 nM | > 30 min | 1955 ng/ml*h/mpk | – | < 10 nM | > 6000 ng/mL | –
3 | COc1cc(N2CCC(CN3CCN(c4ccc(Nc5nc(N6CCC[C@@H](N7CCN(C)C7=O)C6)nnc5C(N)=O)cc4F)CC3)CC2)ccc1N1CCC(=O)NC1=O [Compound 259, (R)-5-((4-(4-((1-(4-(2,4-dioxotetrahydropyrimidin-1(2H)-yl)-3-methoxyphenyl)piperidin-4-yl)methyl)piperazin-1-yl)-3-fluorophenyl)amino)-3-(3-(3-methy 1-2-oxoimidazolidin-1-yl)piperidin-1-yl)-1,2,4-triazin-6-carboxamide] | < 1 nM | – | – | 5.58 nM | – | 0.61 nM | > 30 min | 2223 ng/ml*h/mpk | – | < 10 nM | > 6000 ng/mL | –
4 | CN1CCN([C@@H]2CCCN(c3nnc(C(N)=O)c(Nc4ccc(N5CCN(C[C@H]6CCN(c7ccc8c(c7)C(=O)N(C7CCC(=O)NC7=O)C8=O)C6)CC5)c(F)c4)n3)C2)C1=O (stereo partly drawn) [Compound 132, 5-((4-(4-(((3R)-1-(2-(2,6-dioxopiperidin-3-yl)-1,3-dioxoisoindolin-5-yl)pyrrolidin-3-yl)methyl)piperazin-1-yl)-3-fluorophenyl)amino)-3-((R)-3-(3-methyl-2-oxoimidazolin-1-yl)piperidin-1-yl)-1,2,4-triazin-6-carboxamide] | < 1 nM | – | – | 2.55 nM | – | < 1 nM | > 30 min | 2430 ng/ml*h/mpk | 7800 ng/mL | – | – | 1690 ng·h/mL
5 | Cc1cc(N2CCC(CN3CCN(c4ccc(Nc5nc(N6CCC[C@@H](N7CCN(C)C7=O)C6)nnc5C(N)=O)cc4F)CC3)CC2)ccc1N1CCC(=O)NC1=O [Compound 257, (R)-5-((4-(4-((1-(4-(2,4-dioxotetrahydropyrimidin-1(2H)-yl)-3-methylphenyl)piperidin-4-yl)methyl)piperazin-1-yl)-3-fluorophenyl)amino)-3-(3-(3-methyl-2-oxoimidazolidin-1-yl)piperidin-1-yl)-1,2,4-triazin-6-carboxamide] | < 1 nM | 100% | 100% | < 0.26 nM | 98.74% | 0.12 nM | > 30 min | – | – | < 10 nM | – | 6590 ng·h/mL
6 | CN1CCN([C@@H]2CCCN(c3nnc(C(N)=O)c(Nc4ccc(N5CCN(CC6CCN(c7ccc(C(=O)NC8CCC(=O)NC8=O)nc7)CC6)CC5)c(F)c4)n3)C2)C1=O (stereo partly drawn) [Compound 146, 5-((4-(4-((1-(6-((2,6-dioxopiperidin-3-yl)carbamoyl)pyridin-3-yl)piperidin-4-yl)methyl)piperazin-1-yl)-3-fluorophenyl)amino)-3-((R)-3-(3-methyl-2-oxoimidazolin-1-yl)piperidin-1-yl)-1,2,4-triazin-6-carboxamide] | < 1 nM | – | – | 1.73 nM | – | 1.39 nM | > 30 min | – | – | < 10 nM | – | –
7 | C=CC(=O)N1CCC[C@@H](n2nc(-c3ccc(Oc4ccccc4)cc3)c3c(N)ncnc32)C1 [Ibrutinib] | – | – | – | – | 50.72% | – | – | – | – | – | – | –
8 | CN1CCN([C@@H]2CCCN(c3nnc(C(N)=O)c(Nc4ccc(N5CCN(CC6CCN(c7ccc8c(c7)C(=O)N(C7CCC(=O)NC7=O)C8=O)C6)CC5)c(F)c4)n3)C2)C1=O (stereo partly drawn) [Compound 130, 5-((4-(4-((1-(2-(2,6-dioxopiperidin-3-yl)-1,3-dioxoisoindolin-5-yl)pyrrolidin-3-yl)methyl)piperazin-1-yl)-3-fluorophenyl)amino)-3-((R)-3-(3-methyl-2-oxoimidazolin-1-yl)piperidin-1-yl)-1,2,4-triazin-6-carboxamide] | < 1 nM | – | – | 2.41 nM | – | 0.28 nM | 32.6 min | 3809 ng/ml*h/mpk | – | < 10 nM | > 6000 ng/mL | –
9 | NC(=O)c1ncc(N2CCCCC2)nc1Nc1ccc(C2CCN(C[C@H]3CCN(c4ccc5c(c4)C(=O)N(C4CCC(=O)NC4=O)C5=O)C3)CC2)cc1 (stereo partly shown) [Compound c, reference compound] | – | 10.2% | 16.3% | – | 67.59% | – | – | – | – | – | – | 246 ng·h/mL
10 | CN1CCN([C@@H]2CCCN(c3nnc(C(N)=O)c(Nc4ccc(C5CCN(CC6CCN(c7ccc8c(c7)C(=O)N(C7CCC(=O)NC7=O)C8=O)CC6)CC5)cc4)n3)C2)C1=O (stereo partly drawn) [Compound 123, 5-((4-(1-((1-(2-(2,6-dioxopiperidin-3-yl)-1,3-dioxoisoindolin-5-yl)piperidin-4-yl)methyl)piperidin-4-yl)phenyl)amino)-3-((R)-3-(3-methyl-2-oxoimidazolin-1-yl)piperidin-1-yl)-1,2,4-triazin-6-carboxamide] | < 1 nM | – | – | 2.11 nM | 95.66% | 0.2 nM | – | 1920 ng/ml*h/mpk | – | < 10 nM | > 6000 ng/mL | –

Source: US20240360146A1, “BRUTON'S TYROSINE KINASE AND MUTANT DEGRADER, COMPOSITION AND APPLICATION THEREOF” (HANGZHOU HEALZEN THERAPEUTICS CO., LTD., priority 2021, published 2024)
